Where a name gives a salt, the structure may show the parent alone.
| Structure (SMILES) | melting point |
| --- | --- |
| COC(=O)C1=C(CCc2nccs2)NC(CC(=O)N2CCN(C3CCC(N4CCCC4=O)CC3)CC2)=C(C(=O)OC)C1c1c(Cl)cccc1Cl (centres unmarked) (as salt: HCl) [Example 23, Dimethyl 4-(2,6-dichlorophenyl)-2-[2-oxo-2-[4-[4-(2-oxo-1-pyrrolidinyl)cyclohexyl]-1-piperazinyl]ethyl]-6-[2-(1,3-thiazol-2-yl)ethyl]-1,4-dihydro-3,5-pyridinedicarboxylate] | 182 to 184 °C (dec.) |
| COC(=O)C1=C(CCc2nccs2)NC(CC(=O)N2CCN(CCC3(O)CCCCC3)CC2)=C(C(=O)OC)C1c1c(Cl)cccc1Cl (centres unmarked) (as salt: HCl) [Example 28, Dimethyl 4-(2,6-dichlorophenyl)-2-[2-[4-[2-(1-hydroxycyclohexyl)ethyl]-1-piperazinyl]-2-oxoethyl]-6-[2-(1,3-thiazol-2-yl)ethyl]-1,4-dihydro-3,5-pyridinedicarboxylate] | 188 to 190 °C (dec.) |
| COC(=O)C1=C(CCc2nccs2)NC(CC(=O)N2CCN(CCCN3C(=O)CCC3C)CC2)=C(C(=O)OC)C1c1c(Cl)cccc1Cl (centres unmarked) (as salt: HCl) [Example 29, Dimethyl 4-(2,6-dichlorophenyl)-2-[2-[4-[3-(2-methyl-5-oxo1-pyrrolidinyl)propyl]-1-piperazinyl]-2-oxoethyl]-6-[2-(1,3-thiazol-2-yl)ethyl]-1,4-dihydro-3,5-pyridinedicarboxylate] | 188 to 193 °C (dec.) |
| COC(=O)C1=C(CCc2nccs2)NC(CC(=O)N2CCN(CCC3(N4CCCC4=O)CCCC3)CC2)=C(C(=O)OC)C1c1c(Cl)cccc1Cl (centres unmarked) (as salt: HCl) [Example 33, Dimethyl 4-(2,6-dichlorophenyl)-2-[2-oxo-2-[4-[2-[1-(2-oxo-1-pyrrolidinyl)cyclopentyl]ethyl]-1-piperazinyl]ethyl]-6-[2-(1,3-thiazol-2-yl)ethyl]-1,4-dihydro-3,5-pyridinedicarboxylate] | 175 to 180 °C (dec.) |
| CCN(CC)C1(CCN2CCN(C(=O)CC3=C(C(=O)OC)C(c4c(Cl)cccc4Cl)C(C(=O)OC)=C(CCc4nccs4)N3)CC2)CCCC1 (centres unmarked) (as salt: HCl) [Example 34, Dimethyl 4-(2,6-dichlorophenyl)2-[2-[4-[2-[1-(diethylamino)cyclopentyl]ethyl]-1-piperazinyl]-2-oxoethyl]-6-[2-(1,3-thiazol-2-yl)ethyl]-1,4-dihydro-3,5-pyridinedicarboxylate] | 195 to 200 °C (dec.) |
| COC(=O)C1=C(CCc2nccs2)NC(CC(=O)N2CCN(CCCCN3CCOCC3)CC2)=C(C(=O)OC)C1c1c(Cl)cccc1Cl (centres unmarked) (as salt: HCl) [Example 38, Dimethyl 4-(2,6-dichlorophenyl)-2-[2-[4-[4-(4-morpholinyl)butyl]-1-piperazinyl]-2-oxoethyl]-6-[2-(1,3-thiazol-2-yl)ethyl]-1,4-dihydro-3,5-pyridinedicarboxylate] | 169 to 177 °C (dec.) |
| CCC(CC)(CCN1CCN(C(=O)CC2=C(C(=O)OC)C(c3c(Cl)cccc3Cl)C(C(=O)OC)=C(CCc3nccs3)N2)CC1)N1CCCC1=O (centres unmarked) (as salt: HCl) [Example 39, Dimethyl 4-(2,6-dichlorophenyl)-2-[2-[4-[3-ethyl-3-(2-oxo-1-pyrrolidinyl)pentyl]-1-piperazinyl]-2-oxoethyl]-6-[2-(1,3-thiazol-2-yl)ethyl]-1,4-dihydro-3,5-pyridinedicarboxylate] | 151 to 155 °C (dec.) |
| COC(=O)C1=C(CCc2nccs2)NC(CC(=O)N2CCN(CCC3(C(N)=O)CCCC3)CC2)=C(C(=O)OC)C1c1c(Cl)cccc1Cl (centres unmarked) (as salt: HCl) [Example 43, Dimethyl 2-[2-[4-[2-[1-(aminocarbonyl)cyclopentyl]ethyl]-1-piperazinyl]-2-oxoethyl]-4-(2,6-dichlorophenyl)-6-[2-(1,3-thiazol-2-yl)ethyl]-1,4-dihydro-3,5-pyridinedicarboxylate] | 158 to 163 °C (dec.) |
| CCNCC1(C2CCN(C(=O)CC3=C(C(=O)OC)C(c4c(Cl)cccc4Cl)C(C(=O)OC)=C(CCc4nccs4)N3)CC2)CCCCC1 (centres unmarked) (as salt: HCl) [Example 45, Dimethyl 4-(2,6-dichlorophenyl)-2-[2-[4-[1-[(ethylamino)methyl]cyclohexyl]-1-piperidinyl]-2-oxoethyl]-6-[2-(1,3-thiazol-2-yl)ethyl]-1,4-dihydro-3,5-pyridinedicarboxylate] | 162 to 163 °C (dec.) |
| COC(=O)C1=C(CCc2nccs2)NC(CC(=O)N2CCN(CC(C)(C)CNS(C)(=O)=O)CC2)=C(C(=O)OC)C1c1c(Cl)cccc1Cl (centres unmarked) [Example 13, Dimethyl 4-(2,6-dichlorophenyl)-2-[2-[4-[2,2-dimethyl-3-[(methylsulfonyl)amino]propyl]-1-piperazinyl]-2-oxoethyl]-6-[2-(1,3-thiazol-2-yl)ethyl]-1,4-dihydro-3,5-pyridinedicarboxylate] | 132 to 136 °C |
| COC(=O)C1=C(CCc2nccs2)NC(CC(=O)N2CCN(CC(C)(C)C#N)CC2)=C(C(=O)OC)C1c1c(Cl)cccc1Cl (centres unmarked) [Example 15, Dimethyl 2-[2-[4-(2-cyano-2-methylpropyl)-1-piperazinyl]-2-oxoethyl]-4-(2,6-dichlorophenyl)-6-[2-(1,3-thiazol-2-yl)ethyl]-1,4-dihydro-3,5-pyridinedicarboxylate] | 120 to 122 °C |
| COC(=O)C1=C(CCc2nccs2)NC(CC(=O)N2CCN(CC(C)(C)CNC(C)=O)CC2)=C(C(=O)OC)C1c1c(Cl)cccc1Cl (centres unmarked) [Example 16, Dimethyl 2-[2-[4-[3-(acetylamino)-2,2-dimethylpropyl]-1-piperazinyl]-2-oxoethyl]-4-(2,6-dichlorophenyl)-6-[2-(1,3-thiazol-2-yl)ethyl]-1,4-dihydro-3,5 pyridinedicarboxylate] | 104 to 107 °C |
| COC(=O)C1=C(CCc2nccs2)NC(CC(=O)N2CCN(CC3(CN)CCCC3)CC2)=C(C(=O)OC)C1c1c(Cl)cccc1Cl (centres unmarked) [Example 17, Dimethyl 2-[2-[4-[[1-(aminomethyl)cyclopentyl]methyl]-1-piperazinyl]-2-oxoethyl]-4-(2,6-dichlorophenyl)-6-[2-(1,3-thiazol-2-yl)ethyl]-1,4-dihydro-3,5-pyridinedicarboxylate] | 161 to 164 °C |
| COC(=O)C1=C(CCc2nccs2)NC(CC(=O)N2CCN(CC(C)(C)CN)CC2)=C(C(=O)OC)C1c1c(Cl)cccc1Cl (centres unmarked) [Example 18, Dimethyl 2-[2-[4-(3-amino-2,2-dimethylpropyl)-1-piperazinyl]-2-oxoethyl]-4-(2,6-dichlorophenyl)-6-[2-(1,3-thiazol-2-yl)ethyl]-1,4-dihydro-3,5-pyridinedicarboxylate] | 158 to 162 °C |
| CCNCC(C)(C)CN1CCN(C(=O)CC2=C(C(=O)OC)C(c3c(Cl)cccc3Cl)C(C(=O)OC)=C(CCc3nccs3)N2)CC1 (centres unmarked) [Example 19, Dimethyl 4-(2,6-dichlorophenyl)-2-[2-[4-[3-(ethylamino)-2,2-dimethylpropyl]-1-piperazinyl]-2-oxoethyl]-6-[2-(1,3-thiazol-2-yl)ethyl]-1,4-dihydro-3,5-pyridinedicarboxylate] | 154 to 157 °C |
| COC(=O)C1=C(CCc2nccs2)NC(CC(=O)N2CCN(CCCN3CCC(C)C3=O)CC2)=C(C(=O)OC)C1c1c(Cl)cccc1Cl (centres unmarked) [Example 30, Dimethyl 4-(2,6-dichlorophenyl)-2-[2-[4-[3-(3-methyl-2-oxo-1-pyrrolidinyl)propyl]-1-piperazinyl]-2-oxoethyl]-6-[2-(1,3-thiazol-2-yl)ethyl]-1,4-dihydro-3,5pyridinedicarboxylate] | 175 to 178 °C (dec.) |
| COC(=O)C1=C(CCc2nccs2)NC(CC(=O)N2CCC(C3(CNC(C)=O)CCCCC3)CC2)=C(C(=O)OC)C1c1c(Cl)cccc1Cl (centres unmarked) [Example 44, Dimethyl 2-[2-[4-[1-[(acetylamino)methyl]cyclohexyl]-1-piperidinyl]-2-oxoethyl]-4-(2,6dichlorophenyl)-6-[2-(1,3-thiazol-2-yl)ethyl]-1,4dihydro-3,5-pyridinedicarboxylate] | 114 to 116 °C (dec.) |

— US6444677B2, “5-membered heteroaryl substituted 1,4-dihydropyridine compounds as bradykinin antagonists” (Pfizer Inc., priority 1999, dated 2002)
